The source of these data is patent US6218384A, “3-Oxo-pyrido(1,2-a)benzimidazole-4-carboxyl and 4-oxo-azepino(1,2-a)benzimidazole-5-carboxyl derivatives useful in treating central nervous system disorders” (Ortho-McNeil Pharmaceutical, Inc., priority 1997, dated 2001).

The nature of assay [1]: Screens in which the excluded compounds were tested (not specified). Conditions: compounds excluded from formula I.
Assay [2] can be described thus: Horizontal Screen Test for Determining Benzodiazepine Antagonism. It counts as in vivo, male CD1 mice. The settings on record: mice; for percent antagonism: given parenterally with chlordiazepoxide (28 mg/kg, sc), values above 0 considered active. On the procedure:
Some of the compounds of the invention were tested for their ability to antagonize the locomotor discoordinating property of chlordiazepoxide. Male CD1 mice, fasted for at least 16 hours but allowed access to water except during the period of observation, were placed on a horizontally-held screen (mesh size 1/4", wire diameter approximately 1.0 mm). The screen was inverted and mice which successfully climb to the top side of the screen within one minute were selected for testing. Selected mice were weighed and divided into equal groups. Test compounds or vehicle were administered to those mice parenterally at the same time as chlordrazepoxide (28 mg/kg, sc). At a pre-determined interval (or intervals) after administration, the animals were tested for their ability to climb to the top side of the inverted screen (pass the test). Activity is reported as the percent antagonism of the number of animals that fail the test in each treatment group relative to the corresponding chlordiazepoxide-treated group. Percent Antagonism =100×[(Percent Fail in Chlordiazepoxide Group)-(Percent Fail in Test Group)/Percent Fail in Chlordiazepoxide Group]. […] The percent antagonism values for the compounds of the present invention that were tested are as follows: CP 113=0, CP 53=0, CP 59=0,CP 102=0,[…],CP 7=17,CP 8=17,CP 9=30,CP 10=30, CP 11=92, CP 12=92, CP 13=100. Compounds having values above 0 were considered active as agents for treating drug overdoses, particularly overdoses of benzodiazepine.

The nature of assay [3]: Suppression of metrazol-induced convulsions. The settings on record: Table 1, ip, mice, clonic convulsions after sc CD90 metrazol, >30 = active dose not determined; for ED50: Mus musculus, 0.5 h, read-out: Metrazol (ip) ED50; for Metrazol (ip) ED50: 30 min. The class given is in vivo, male CD1 mice.
A short description of assay [4]: Horizontal Screen Test for Motor Coordination. It counts as in vivo, male CD1 mice. The settings on record: Table 1, mice, parenteral, >300 = active dose not determined; for ED50: Mus musculus, read-out: Horiz. Screen ED50. The protocol: Some of the compounds of the invention were tested for their ability to act as general CNS agents and particularity as skeletal muscle relaxants and hypnotics/sedatives (Coughenour, L. L. et al. Pharm. Biochem. Behav. 1977, 6, 351). Male CD1 mice, fasted for at least 16 hours but allowed access to water except during the period of observation, were placed on a horizontally-held screen (mesh size 1/4", wire diameter approximately 1.0 mm). The screen was inverted and mice which successfully climb to the top side of the screen within one minute were selected for testing. Selected mice were weighed and divided into equal groups. Test compounds or vehicle were administered to those mice parenterally. At a pre-determined interval (or intervals) after administration, the animals were tested for their ability to climb to the top side of the inverted screen (pass the test). Activity is reported as the percent reduction in the number of animals that pass the test in each treatment group relative to the corresponding vehicle-treated group. Percent Reduction=100×([Percent Pass in Vehicle Group]-[Percent Pass in Test Group]/Percent Pass in Vehicle Group). Test compounds which produce a 50% or greater reduction in the number passing the test were considered active. ED50 values of the active compounds were calculated by the method of probits (Finney, D. J. 1971. Probit Analysis. London: Cambridge University Press) and are listed in Tables 1 to 5.

Assay [5] concerns the target benzodiazepine site of the GABA-A receptor. Description: Benzodiazepine Receptor Binding Assay (inhibition of 3H-flunitrazepam binding). The settings on record: Table 1; ca. 3 nM 3H-flunitrazepam, 25° C., 10-20 min; >10,000 = not active.
Assay [6] can be described thus: Suppression of anxiety (punished licking, conflict test) in the adult male rat. It counts as in vivo, male rats. The settings on record: Table 1, ip, minimum effective dose, >10 = active dose not determined; for minimal effective dose: read-out: Conflict (ip) MED. In outline: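 Rats were deprived of water for 48 h and food for 24 h, with unpunished training the day before. Testing began at expected peak drug activity: 3-min session, every 20th lick punished by a 0.2-s shock.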

Take `O=C(Nc1ccccc1C(F)(F)F)C1=C(O)CCn2c1nc1ccccc12` [1,2-dihydro-3-hydroxy-N-(2-trifluoromethylphenyl)-pyrido(1,2-a)benzimidazole-4-carboxamide]: in assay [1], the “biological activity in the screens in which they have been tested” value (shortened to “biological activity in the screens”) is “none of these compounds has exhibited biological activity”.
As for `CN(C)c1cc(F)ccc1NC(=O)C1=C(O)CCn2c1nc1ccccc12` [1,2-dihydro-N-(2-dimethylamino-4-fluorophenyl)-3-hydroxypyrido(1,2-a)benzimidazole-4-carboxamide], the “biological activity in the screens” value in assay [1] was “none of these compounds has exhibited biological activity”.
The same measure, in the same setting: with `O=C(Nc1ccncc1)C1=C(O)CCn2c1nc1ccc(Cl)cc12` [8-chloro-1,2-dihydro-3-hydroxy-N-(4-pyridyl)-pyrido(1,2-a)benzimidazole-4-carboxamide] the entry was “none of these compounds has exhibited biological activity”.
Regarding `O=C(NC1CCCCC1)C1=C(O)CCn2c1nc1ccccc12` [CP 7, N-Cyclohexyl-1,2-dihydro-3-hydroxy-pyrido(1,2-a)benzimidazole-4-carboxamide], the percent antagonism in assay [2] came out at 17%.
Still for that read-out and setting: as for `COc1ccc(NC(=O)C2=C(O)CCn3c2nc2ccccc23)cc1OC` [CP 8, 1,2-Dihydro-N-(3,4-dimethoxyphenyl)-3-hydroxy-pyrido(1,2-a)benzimidazole-4-carboxamide], the figure is 17%.
The same measure, in the same setting: with `O=C1CCN2C(=C1C(=O)Nc1ccc([N+](=O)[O-])cc1)Nc1ccccc12` [CP 9] the figure was 30%; with `O=C(Nc1ccc(O)cc1)C1=C(O)CCn2c1nc1ccccc12` [CP 10, 1,2-Dihydro-3-hydroxy-N-(4-hydroxyphenyl)pyrido(1,2-a)benzimidazole-4-carboxamide], 30%; with `COc1ccc2c(c1)nc1n2CCC(O)=C1C(=O)Nc1ccccc1` [CP 12, 1,2-Dihydro-3-hydroxy-7-methoxy-N-(phenyl)pyrido(1,2-a)benzimidazole-4-carboxamide], 92%.
Still for that read-out and setting: with `COc1ccc(NC(=O)C2=C(O)CCn3c2nc2cc(OC)ccc23)cc1` [CP 13, 1,2-Dihydro-3-hydroxy-7-methoxy-N-(4-methoxyphenyl)pyrido(1,2-a)benzimidazole-4-carboxamide] the figure was 100%; with `O=C1CCN2C(=C1C(=O)Nc1ncncn1)Nc1ccccc12` [CP 53], 0%.
Regarding `O=C(NCc1ccncc1)C1=C(O)CCn2c1nc1ccccc12` [CP 59, 1,2-Dihydro-3-hydroxy-N-(4-pyridylmethyl)pyrido(1,2-a)benzimidazole-4-carboxamide], the percent antagonism in assay [2] is 0%.
The same measure, in the same setting: with `CNC(=O)C1=C(O)CCn2c1nc1ccccc12` [CP 102, 1,2-Dihydro-3-hydroxy-N-methyl-pyrido(1,2-a)benzimidazole-4-carboxamide] the figure was 0%; with `O=C(Nc1ccccc1F)C1=C(O)CCn2c1nc1cc(Cl)ccc12` [CP 113, 7-Chloro-1,2-dihydro-3-hydroxy-N-(2-fluorophenyl)-pyrido(1,2-a)benzimidazole-4-carboxamide], 0%.
Take `CN(C)c1ccc(NC(=O)C2=C(O)CCn3c2nc2ccc(Cl)cc23)cc1` [N-(4-(dimethylamino)phenyl)-8-chloro-1,2-dihydro-3-hydroxypyrido(1,2-a)benzimidazole-4-carboxamide]: the “biological activity in the screens” value in assay [1] is “none of these compounds has exhibited biological activity”.
On to `CNC1=Nc2ccc(Cl)cc2C(c2ccccc2)=[N+]([O-])C1` [chlordiazepoxide, reference compound], for which the “impairment of the ability to pass the inverted screen test” value in assay [2] (chlordiazepoxide 28 mg/kg, sc) is given as “impairs the ability of all animals to pass this test”.
For orientation: ED50 means the dose at which the effect has come halfway, by size or by number of responders. A word on the IC50: it is the point on the concentration scale where inhibition reaches its midpoint. Lower therefore signals inhibition by little substance. `CCCCc1ccc(NC(=O)C2=C3Nc4ccccc4N3CCC2=O)cc1` [compound 17]: the ED50 in assay [3] is > 10 mg/kg; in assay [4], 300 mg/kg. In assay [5], the half-maximal inhibitory concentration (IC50) is > 10000 nM.
In the case of `Cc1cccc(C)c1NC(=O)C1=C2Nc3ccccc3N2CCC1=O` [compound 19], the 50% effective dose (ED50) in assay [3] is > 30 mg/kg; in assay [4], 300 mg/kg. In addition, the half-inhibitory concentration (IC50) in assay [5] was determined as 7700 nM. Also, the minimal effective dose in assay [6] is > 10 mg/kg.
The matching figures for `O=C1CCN2C(=C1C(=O)Nn1cnnc1)Nc1ccccc12` [compound 42]: > 10 mg/kg, 300 mg/kg, 2700 nM and > 10 mg/kg.
Turning to `C[n+]1ccc(NC(=O)C2=C3Nc4ccccc4N3CCC2=O)cc1` [compound 56], the ED50 is > 10 mg/kg in assay [3] and 100 mg/kg in assay [4]. Besides, in assay [5], the half-inhibitory concentration (IC50) came to 6300 nM. Besides, the minimal effective dose in assay [6] is > 10 mg/kg.
Turning to `O=C1CCN2C(=C1C(=O)NC1CCNCC1)Nc1ccccc12` [compound 58], the ED50 was > 10 mg/kg in assay [3] and 100 mg/kg in assay [4]. In assay [5], the IC50 is > 10000 nM. The minimal effective dose in assay [6] was > 10 mg/kg.
`NC(=O)c1ccc(NC(=O)C2=C3Nc4ccccc4N3CCC2=O)cc1` [compound 90]: the ED50 in assay [3] and in assay [4] was > 10 mg/kg each time. For the same compound, the half-inhibitory concentration (IC50) in assay [5] is 110 nM. In addition, the minimal effective dose in assay [6] is > 10 mg/kg.
As for `O=C1CCN2C(=C1C(=O)Nc1cccc(F)c1)Nc1ccccc12` [compound 95], the ED50 in assay [3] and in assay [4] was > 10 mg/kg in each case. This compound yielded a half-inhibitory concentration (IC50) in assay [5] of 160 nM. The minimal effective dose in assay [6] was > 10 mg/kg.
In the case of `O=C1CCN2C(=C1C(=O)Nc1ccncc1F)Nc1ccccc12` [compound 97], the ED50 in assay [3] is 1 mg/kg; in assay [4] it was > 10 mg/kg. The same compound came in with a half-maximal inhibitory concentration (IC50) in assay [5] of 53 nM. In addition, the minimal effective dose in assay [6] stood at 10 mg/kg.
Take “N-(2-Fluorophenyl)-3-hydroxypyrido(1,2-a)benzimidazol-4-carboxamide [CP 139]”: the “Metrazol (ip) ED50” value in assay [3] is on record as > 300 mg/kg. In addition, the “Horiz. Screen ED50” value in assay [4] stood at 300 mg/kg. The half-inhibitory concentration (IC50) in assay [5] is > 10000 nM. In addition, the “Conflict (ip) MED” value in assay [6] is given as > 10 mg/kg.
In the case of “N-(4-Pyridyl)-1,2-dihydro-3-hydroxypyrido-(1,2-a)benzimidazole-4-carboxamide [CP 35]”, the “Metrazol (ip) ED50” value in assay [3] is 3 mg/kg. The compound further displayed an IC50 in assay [5] of 9.1 nM. Besides, in assay [6], the “Conflict (ip) MED” value stood at 10 mg/kg.
The like results for “Phenyl-1,2-dihydro-3-hydroxypyrido(1,2-a)benzimidazole-4-carboxthiolate [CP 119]” were, in that order, 30 mg/kg, 43 nM and 10 mg/kg.
Take “Phenyl-1,2-dihydro-3-hydroxypyrido(1,2-a)benzimidazole-4-carboxylate [CP 118]”: in assay [3], the “Metrazol (ip) ED50” value was determined as 3 mg/kg. Moreover, the IC50 in assay [5] is 41 nM. Also, in assay [6], the “Conflict (ip) MED” value amounted to 10 mg/kg.
